Assay results from patent US20080234337A1, “Preventive and/or Remedy for Hyperkalemia Containing Ep4 Agonist” (ONO PHARMACEUTICAL CO., LTD., priority 2004, published 2008).

Biological target: T1, EP4 (Cavia porcellus, UniProt Q1HG69)
T1 construct: Tissue samples including submucosal ganglia and mucosa were obtained by removal of myenteric plexus; from tissue; host or cells: guinea pig distal colon (mucosa with submucosal ganglia), mounted in Ussing flux chambers
Assay: Short-circuit current (Isc) measurement of colonic ion transport in guinea pig distal colon tissue using Ussing flux chamber (investigation of EP4 agonistic activity)
Format: cell-based

T1 sequence (Q1HG69 1-487): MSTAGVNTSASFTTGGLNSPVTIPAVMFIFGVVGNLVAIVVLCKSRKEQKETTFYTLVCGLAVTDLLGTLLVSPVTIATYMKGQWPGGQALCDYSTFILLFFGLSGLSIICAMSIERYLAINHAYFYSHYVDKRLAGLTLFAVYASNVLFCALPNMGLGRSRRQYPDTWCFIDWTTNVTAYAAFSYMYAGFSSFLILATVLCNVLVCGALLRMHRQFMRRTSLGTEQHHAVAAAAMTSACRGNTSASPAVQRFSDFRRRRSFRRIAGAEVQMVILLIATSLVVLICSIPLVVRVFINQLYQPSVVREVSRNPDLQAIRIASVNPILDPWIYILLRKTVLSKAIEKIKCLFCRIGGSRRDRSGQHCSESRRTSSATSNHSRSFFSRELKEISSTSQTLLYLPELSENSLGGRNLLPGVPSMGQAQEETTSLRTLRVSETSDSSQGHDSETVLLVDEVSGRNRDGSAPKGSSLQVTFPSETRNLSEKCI

Row | Compound | change of short-circuit current (Isc) (addition of test compound into serosal chamber, concentration not given, FIG. 3) | decrease of short-circuit current (Isc) in presence of EP4 antagonist (PGE2 at low concentration plus EP4 antagonist (not named)) | change of short-circuit current (Isc) (added into serosal chamber at 10^-5 mol/L, tetrodotoxin and piroxicam pretreatment, FIG. 1) | change of short-circuit current (Isc) (added into serosal chamber at 10^-6 mol/L, tetrodotoxin and piroxicam pretreatment, FIG. 1) | change of short-circuit current (Isc) (added into serosal chamber at from 10^-8 to 10^-7 mol/L, tetrodotoxin and piroxicam pretreatment, FIG. 1) | change of short-circuit current (Isc) (low concentration) | potassium secretion (suggested by decrease of Isc) (low concentration)
1 | COCc1cccc(C[C@H](O)/C=C/[C@H]2[C@H](O)CC(=O)[C@@H]2SCCCSCC(=O)O)c1 [compound 1, ({3-[((1R,2S,3R)-3-hydroxy-2-{(1E,3S)-3-hydroxy-4-[3-(methoxymethyl)phenyl]but-1-enyl}-5-oxocyclopentyl)sulfanyl]propyl}sulfanyl)acetic acid] | decrease of short-circuit current (Isc) | – | – | – | – | – | –
2 | CCCCC[C@H](O)/C=C/[C@H]1[C@H](O)CC(=O)[C@@H]1C/C=C\CCCC(=O)O [PGE2] | – | countered by EP4 antagonist | biphasic [Transient phase, Sustained Phase] change of short-circuit current (Isc) | temporary increase of Isc | decrease of Isc | decrease of short-circuit current (Isc) | promoted the potassium secretion
